Measurements: EPA's ToxRefDB 2

Key:
[1] = test system: mouse; details: Prenatal developmental toxicity study, cd1, Oral, Gavage/Intubation, dose end: 15 GD
[2] = test system: rabbit; details: Prenatal developmental toxicity study, new zealand white, Oral, Gavage/Intubation, dose end: 19 GD, group: maternal
[3] = test system: mouse; details: Carcinogenicity, cd1, Oral, Feed, dose end: 78 week, group: systemic
[4] = test system: rat; details: Combined chronic toxicity/carcinogenicity, other, Oral, Feed, dose end: 104 week, group: systemic
[5] = test system: rat; details: Multigenerational reproductive toxicity study, sprague dawley, Oral, Feed, dose end: 2 generation
[6] = test system: rat; details: Subchronic oral toxicity in rodents, sprague dawley, Feed, dose end: 90 day, group: systemic
[7] = test system: dog; details: Chronic toxicity, beagle, Oral, Feed, dose end: 80 day, group: systemic
[8] = test system: dog; details: Subchronic oral toxicity in nonrodent, beagle, Feed, dose end: 90 day, group: systemic, systemic / hematology / methemoglobin / methemoglobin
[9] = test system: rat; details: Combined chronic toxicity/carcinogenicity, sprague dawley, Oral, Feed, dose end: 104 week
[10] = test system: rat; details: Subchronic oral toxicity in rodents, wistar, Feed, dose end: 13 week, group: systemic
[11] = test system: rat; details: Multigenerational reproductive toxicity study, other, Oral, Feed, dose end: 2 generation
[12] = test system: rat; details: Prenatal developmental toxicity study, wistar, Oral, Gavage/Intubation, dose end: 15 GD
[13] = test system: dog; details: Chronic toxicity, beagle, Oral, Feed, dose end: 52 week, group: systemic
[14] = test system: rabbit; details: Prenatal developmental toxicity study, chinchilla, Oral, Gavage/Intubation, dose end: 27 GD
[15] = test system: rat; details: Combined chronic toxicity/carcinogenicity, wistar, Oral, Feed, dose end: 106 week, group: systemic
[16] = test system: rat; details: Subchronic oral toxicity in rodents, wistar, Feed, dose end: 13 week
[17] = test system: rat; details: Prenatal developmental toxicity study, wistar, Oral, Gavage/Intubation, dose end: 15 GD; remark: listed apart in the source
[18] = test system: mouse; details: Carcinogenicity, other, Oral, [Not Specified], dose end: 104 week, group: systemic
[19] = group: developmental, systemic / in life observation / body weight / fetal weight
[20] = group: maternal, reproductive / reproductive performance / resorptions / resorptions + systemic / in life observation / body weight / body weight gain + …
[21] = systemic / in life observation / mortality / mortality + reproductive / reproductive performance / premature delivery / premature delivery
[22] = systemic / pathology microscopic / liver / hypertrophy + systemic / pathology microscopic / liver / necrosis
[23] = systemic / pathology microscopic / liver / hypertrophy + systemic / pathology microscopic / liver / necrosis + systemic / pathology …
[24] = systemic / pathology microscopic / liver / vacuolization
[25] = systemic / pathology microscopic / liver / vacuolization + systemic / pathology microscopic / liver / hyperplasia + systemic / pathology …
[26] = group: offspring, systemic / in life observation / body weight / offspring (pup) weight + systemic / in life observation / body weight / offspring (pup) …
[27] = group: parental, systemic / in life observation / body weight / body weight + systemic / in life observation / body weight / body weight gain + systemic / …
[28] = systemic / clinical chemistry / alanine aminotransferase (alt/sgpt) / alanine aminotransferase (alt/sgpt) + systemic / clinical chemistry / …
[29] = systemic / hematology / methemoglobin / methemoglobin
[30] = systemic / hematology / methemoglobin / methemoglobin + systemic / urinalysis / appearance and color / appearance and color
[31] = group: cholinesterase, cholinesterase / cholinesterase / cholinesterase / brain cholinesterase (che)
[32] = group: cholinesterase, cholinesterase / cholinesterase / cholinesterase / erythrocyte cholinesterase (che) + cholinesterase / cholinesterase / cholinesterase / …
[33] = group: systemic, systemic / hematology / erythrocyte (rbc) count differential / erythrocyte (rbc) + systemic / hematology / hematocrit (hct) / hematocrit (…
[34] = systemic / clinical chemistry / thyroxine (t4) / thyroxine (t4), total + systemic / hematology / methemoglobin / methemoglobin + systemic / …
[35] = group: offspring, systemic / organ weight / kidney / relative to body weight + systemic / organ weight / liver / relative to body weight
[36] = group: parental, systemic / organ weight / spleen / absolute + systemic / organ weight / spleen / relative to body weight + systemic / hematology / anemia / …
[37] = group: parental, systemic / organ weight / spleen / absolute + systemic / organ weight / spleen / relative to body weight + systemic / in life observation / …
[38] = group: reproductive, reproductive / offspring survival early / litter size / litter size
[39] = group: developmental, developmental / developmental malformation / bone / incomplete ossification + developmental / developmental malformation / bone / unossified…
[40] = group: maternal, systemic / hematology / methemoglobin / methemoglobin
[41] = group: maternal, systemic / hematology / methemoglobin / methemoglobin + systemic / hematology / heinz body / heinz body + systemic / in life observation / …
[42] = systemic / hematology / methemoglobin / methemoglobin + systemic / clinical chemistry / triiodothyronine (t3) / triiodothyronine (t3), total
[43] = group: developmental, systemic / in life observation / body weight / fetal weight + developmental / developmental malformation / bone / unossified
[44] = group: maternal, systemic / in life observation / body weight / body weight gain + systemic / in life observation / food consumption / food consumption + …
[45] = systemic / hematology / anemia / anemia - hemolytic + systemic / hematology / erythrocyte (rbc) count differential / erythrocyte (rbc) + …
[46] = systemic / pathology microscopic / thyroid gland / hyperplasia
[47] = group: cholinesterase, cholinesterase / cholinesterase / cholinesterase / brain cholinesterase (che) + cholinesterase / cholinesterase / cholinesterase / …
[48] = group: systemic, systemic / hematology / anemia / anemia - macrocytic + systemic / hematology / erythrocyte (rbc) count differential / erythrocyte (rbc) + …
[49] = group: developmental, developmental / developmental malformation / bone / absent + developmental / developmental malformation / bone / bipartite ossification + …
[50] = group: maternal, systemic / in life observation / body weight / body weight gain + systemic / in life observation / food consumption / food consumption
[51] = systemic / hematology / anemia / anemia - heinz body + systemic / in life observation / body weight / body weight

In the case of `[O]=[Cr](=[O])([OH])[OH]` [Chromic(VI) acid], the LEL [1, 19] was 120 mg/kg/day, the LOAEL [1, 19] was over 120 mg/kg/day and the NEL [1, 19] was 60 mg/kg/day. For the same compound, the NOAEL [1, 19] was at least 120 mg/kg/day, the LEL [1, 20] was 120 mg/kg/day and the LOAEL [1, 20] was 120 mg/kg/day. The NEL [1, 20] was 60 mg/kg/day, the NOAEL [1, 20] was 60 mg/kg/day and the LOAEL ([2]; systemic / in life observation / mortality / mortality) was 2 mg/kg/day. For the same compound, the LEL [2, 21] was 2 mg/kg/day, the NEL [2, 21] was 0.5 mg/kg/day and the NOAEL [2, 21] was 0.5 mg/kg/day.
With `CCOC(=O)COc1cc(-c2nn(C)c(OC(F)F)c2Cl)c(F)cc1Cl` [Pyraflufen-ethyl] the LEL [3, 22] was 98.3 mg/kg/day, the LOAEL [3, 22] was 98.3 mg/kg/day and the NEL [3, 23] was 19.6 mg/kg/day. It also gave an NOAEL [3, 23] of 19.6 mg/kg/day, an LEL [4, 24] of 86.7 mg/kg/day and an LOAEL [4, 24] of 86.7 mg/kg/day. The NEL [4, 25] was 17.2 mg/kg/day, the NOAEL [4, 25] was 17.2 mg/kg/day and the LEL [5, 26] was 721 mg/kg/day. It also gave an LOAEL [5, 26] of 721 mg/kg/day, an NEL [5, 26] of 70.8 mg/kg/day and an NOAEL [5, 26] of 70.8 mg/kg/day. It also gave an LEL [5, 27] of 721 mg/kg/day, an LOAEL [5, 27] of 721 mg/kg/day and an NEL [5, 27] of 70.8 mg/kg/day. It also gave an NOAEL [5, 27] of 70.8 mg/kg/day, an LOAEL [6, 28] of 1490 mg/kg/day and an NEL [6, 28] of 85.6 mg/kg/day. It also gave an NOAEL [6, 28] of 456 mg/kg/day and an LEL ([6]; systemic / organ weight / brain / relative to body weight) of 456 mg/kg/day.
Compound `CCOC(=O)Nc1cccc(OC(=O)Nc2ccccc2)c1` [Desmedipham] has an LOAEL [7, 29] of 12.5 mg/kg/day, an NOAEL [7, 29] of under 12.5 mg/kg/day and an LEL [7, 30] of 12.5 mg/kg/day. For the same compound, the NEL [7, 30] was under 12.5 mg/kg/day, the LEL [8] was 4.97 mg/kg/day and the LOAEL [8] was 4.97 mg/kg/day. It also gave an NEL [8] of 0.17 mg/kg/day, an NOAEL [8] of 0.17 mg/kg/day and an LOAEL [9, 31] of over 54 mg/kg/day. It also gave an NOAEL [9, 31] of at least 54 mg/kg/day, an LEL [9, 32] of 25 mg/kg/day and an NEL [9, 32] of 5.9 mg/kg/day. For the same compound, the LOAEL [9, 33] was 54 mg/kg/day, the NEL [9, 33] was 4.7 mg/kg/day and the NOAEL [9, 33] was 18 mg/kg/day. The LEL ([9]; group: systemic, systemic / pathology microscopic / lung / focal cellular change + systemic / pathology microscopic / seminal vesicle / secretory fluid) was 18 mg/kg/day, the LOAEL [10, 34] was 26 mg/kg/day and the NOAEL [10, 34] was 5.2 mg/kg/day. For the same compound, the LEL [10, 29] was 5.2 mg/kg/day, the NEL ([10]; systemic / hematology / methemoglobin / methemoglobin + systemic / clinical chemistry / thyroxine (t4) / thyroxine (t4), total + systemic / …) was 2.6 mg/kg/day and the LOAEL ([11]; group: offspring, systemic / in life observation / body weight / offspring (pup) weight) was 110 mg/kg/day. For the same compound, the NOAEL ([11]; group: offspring, systemic / in life observation / body weight / offspring (pup) weight + systemic / organ weight / heart / absolute + systemic / organ weight…) was 20 mg/kg/day, the LEL [11, 35] was 4 mg/kg/day and the NEL [11, 35] was under 4 mg/kg/day. It also gave an LEL [11, 36] of 20 mg/kg/day, an LOAEL [11, 36] of 20 mg/kg/day and an NEL [11, 37] of 4 mg/kg/day. The NOAEL [11, 37] was 4 mg/kg/day, the LEL [11, 38] was 110 mg/kg/day and the LOAEL [11, 38] was over 110 mg/kg/day. It also gave an NEL [11, 38] of 20 mg/kg/day, an NOAEL [11, 38] of at least 110 mg/kg/day and an LEL [12, 39] of 500 mg/kg/day. The LOAEL [12, 39] was 500 mg/kg/day, the NEL [12, 39] was 100 mg/kg/day and the NOAEL [12, 39] was 100 mg/kg/day. The LEL [12, 40] was 100 mg/kg/day, the LOAEL [12, 40] was 100 mg/kg/day and the NEL [12, 41] was 10 mg/kg/day. The NOAEL [12, 41] was 10 mg/kg/day, the LOAEL [13, 29] was 9.6 mg/kg/day and the NOAEL [13, 29] was under 9.6 mg/kg/day. For the same compound, the LEL [13, 42] was 9.6 mg/kg/day, the NEL [13, 42] was under 9.6 mg/kg/day and the LEL [14, 43] was 450 mg/kg/day. The LOAEL [14, 43] was 450 mg/kg/day, the NEL [14, 43] was 150 mg/kg/day and the NOAEL [14, 43] was 150 mg/kg/day. The LOAEL ([14]; group: maternal, systemic / in life observation / body weight / body weight gain) was 450 mg/kg/day, the LEL [14, 44] was 450 mg/kg/day and the NEL [14, 44] was 150 mg/kg/day. It also gave an NOAEL [14, 44] of 150 mg/kg/day, an LOAEL [15, 45] of 16.1 mg/kg/day and an NOAEL [15, 45] of 3.3 mg/kg/day. It also gave an LEL [15, 46] of 3.18 mg/kg/day, an NEL [15, 46] of under 3.18 mg/kg/day and an LEL [16, 47] of 15 mg/kg/day. For the same compound, the LOAEL [16, 47] was 15 mg/kg/day, the NEL [16, 47] was under 15 mg/kg/day and the NOAEL [16, 47] was under 15 mg/kg/day. It also gave an LEL [16, 48] of 15 mg/kg/day, an LOAEL [16, 48] of 15 mg/kg/day and an NEL [16, 48] of under 15 mg/kg/day. For the same compound, the NOAEL [16, 48] was under 15 mg/kg/day, the LEL [17, 49] was 1000 mg/kg/day and the LOAEL [17, 49] was 1000 mg/kg/day. The NEL [17, 49] was 100 mg/kg/day, the NOAEL [17, 49] was 100 mg/kg/day and the LEL [17, 50] was 1000 mg/kg/day. The LOAEL [17, 50] was 1000 mg/kg/day, the NEL [17, 50] was 100 mg/kg/day and the NOAEL [17, 50] was 100 mg/kg/day. It also gave an LOAEL ([18]; systemic / hematology / anemia / anemia - heinz body) of 109 mg/kg/day, an LEL [18, 51] of 109 mg/kg/day and an NEL [18, 51] of 21.7 mg/kg/day. It also gave an NOAEL [18, 51] of 21.7 mg/kg/day.
